Six compounds from ChEMBL document CHEMBL4834434, “Discovery of Novel and Potent N-Methyl-d-aspartate Receptor Positive Allosteric Modulators with Antidepressant-like Activity in Rodent Models” (J Med Chem, 2021) can be followed below.

Data set [1] has as its system Mus musculus. Put plainly: Antidepressant activity in icv dosed C57BL/6N mouse assessed as decrease in immobility time measured after 36 mins. The format is functional, organism-based.
A short description of data set [2]: Cytotoxicity against human HEK293 cells assessed as cell growth inhibition at 60 uM measured after 48 hrs by CCK8 assay relative to control. The format is cell-based.
Data set [3] in a line: Effect on locomotor activity in ICR mouse assessed as hyperlocomotion at 10 mg/kg, ip measured after 90 mins. The format is ADME, organism-based. Conditions: in vivo, 1.5 h.
Data set [4] can be described thus: Cytotoxicity against mouse L929 cells assessed as cell growth inhibition at 120 uM measured after 48 hrs by CCK8 assay relative to control. The format is cell-based. (Formazan colour is commonly taken as a measure of viable cells.)
For data set [5], the target named is T1, Glutamate NMDA receptor (Mus musculus) (UniProt P35436+Q91ZU9+Q03391+P35438+Q01097+Q01098+A2AIR5). Nature of the data set: Positive allosteric modulation of C57BL/6 mouse NMDA receptor assessed as fold change in compound potentiated NMDA-induced current relative to NMDA current alone at 30 uM measured after 15 to 30 mins by patch-clamp method. The format is tissue-based. As to conditions: Brain, filed as positive allosteric modulator, time 15-30 min.

A short description of data set [6]: Brain to blood partition coefficient of the compound. The format is physicochemical, tissue-based. Conditions: read-out: logBB (converted).
The target in data set [7] is Glutamate NMDA receptor. Nature of the data set: Positive allosteric modulation of C57BL/6 mouse NMDA receptor assessed as potentiation of NMDA-induced current in presence of saturating glutamate by patch-clamp method. The format is tissue-based, Brain.
A short description of data set [8]: Effect on locomotor activity in ICR mouse assessed as hypolocomotion at 10 mg/kg, ip measured after 90 mins. The format is ADME, organism-based. Conditions: in vivo, 1.5 h.
A short description of data set [9]: Cytotoxicity against mouse L929 cells assessed as cell growth inhibition at 60 uM measured after 48 hrs by CCK8 assay relative to control. The format is cell-based.
Data set [10] can be described thus: Cytotoxicity against human HEK293 cells assessed as cell growth inhibition at 120 uM measured after 48 hrs by CCK8 assay relative to control. The format is cell-based.
For data set [11], the target named is T1, Glutamate NMDA receptor (Mus musculus). Put plainly: Positive allosteric modulation of C57BL/6 mouse NMDA receptor assessed as fold change in compound potentiated NMDA-induced current relative to NMDA current alone in presence of saturating glutamate by patch-clamp method. The format is tissue-based. Conditions: Brain, filed as positive allosteric modulator. A general note: The patch-clamp technique gives a direct electrical read-out from membranes.

The target of data set [12] is T2, hERG (KCNH2) (Homo sapiens, UniProt Q12809). Nature of the data set: Inhibition of human ERG expressed in CHO cells at 30 uM with holding potential at -80 to -60 mV for 500s followed by raise in potential at +30 mV for 2 sec and subsequent repolarization to -60 mV for 2 sec by whole-cell patch clamp method relative to control. The format is cell-based. Conditions: CHO cells expressing human ERG.
T2 sequence (Q12809 whole entry): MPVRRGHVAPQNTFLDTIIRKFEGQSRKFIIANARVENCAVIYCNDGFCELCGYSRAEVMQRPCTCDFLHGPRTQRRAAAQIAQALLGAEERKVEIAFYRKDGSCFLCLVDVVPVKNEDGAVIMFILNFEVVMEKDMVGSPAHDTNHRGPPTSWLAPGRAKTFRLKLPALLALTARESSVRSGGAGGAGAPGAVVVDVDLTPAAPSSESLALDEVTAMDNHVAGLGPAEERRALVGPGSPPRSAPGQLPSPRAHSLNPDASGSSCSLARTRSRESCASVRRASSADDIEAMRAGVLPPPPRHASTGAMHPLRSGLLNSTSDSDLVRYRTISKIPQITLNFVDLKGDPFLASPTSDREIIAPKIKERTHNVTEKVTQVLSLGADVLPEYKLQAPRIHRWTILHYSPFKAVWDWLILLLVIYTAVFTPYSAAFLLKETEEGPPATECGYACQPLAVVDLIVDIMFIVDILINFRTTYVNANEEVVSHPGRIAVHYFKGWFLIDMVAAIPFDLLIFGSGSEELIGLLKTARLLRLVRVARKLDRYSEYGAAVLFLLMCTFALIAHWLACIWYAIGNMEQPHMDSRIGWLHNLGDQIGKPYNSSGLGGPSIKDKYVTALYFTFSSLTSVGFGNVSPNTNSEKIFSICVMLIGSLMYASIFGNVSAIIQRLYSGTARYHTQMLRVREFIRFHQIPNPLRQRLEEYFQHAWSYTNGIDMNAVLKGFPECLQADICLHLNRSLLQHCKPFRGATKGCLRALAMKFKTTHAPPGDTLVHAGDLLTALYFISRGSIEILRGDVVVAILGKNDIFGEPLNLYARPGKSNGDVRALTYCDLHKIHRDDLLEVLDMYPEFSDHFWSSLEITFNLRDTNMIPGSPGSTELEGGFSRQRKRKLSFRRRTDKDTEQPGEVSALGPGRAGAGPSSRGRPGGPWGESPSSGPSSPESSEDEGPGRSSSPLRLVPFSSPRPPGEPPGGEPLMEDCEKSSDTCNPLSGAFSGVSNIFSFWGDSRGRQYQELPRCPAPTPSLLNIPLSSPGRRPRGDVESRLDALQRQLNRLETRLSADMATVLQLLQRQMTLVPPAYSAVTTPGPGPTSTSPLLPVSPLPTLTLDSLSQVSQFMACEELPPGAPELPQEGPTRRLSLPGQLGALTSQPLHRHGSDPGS

The test system of data set [13] is Mus musculus. Nature of the data set: Antidepressant activity in ICR mouse assessed as decrease in immobility time at 30 mg/kg, ip measured after 26 mins by forced swim test. The format is functional, organism-based.
A short description of data set [14]: Cytotoxicity against African green monkey Vero cells assessed as cell growth inhibition at 60 uM measured after 48 hrs by CCK8 assay relative to control. The format is cell-based. Conditions: chlorocebus sabaeus.
Data set [15] deals with T2, hERG (KCNH2). Nature of the data set: Inhibition of human ERG expressed in CHO cells at 100 uM with holding potential at -80 to -60 mV for 500s followed by raise in potential at +30 mV for 2 sec and subsequent repolarization to -60 mV for 2 sec by whole-cell patch clamp method relative to control. The format is cell-based. As to conditions: CHO cells expressing human ERG.

Data set [16] has as its system Mus musculus. Put plainly: Antidepressant activity in ICR mouse aassessed as inhibition of apomorphine-induced climbing behaviour at 10 mg/kg, ip administered prior to APO challenge and measured after 30 mins. The format is functional, organism-based.
A short description of data set [17]: Cytotoxicity against African green monkey Vero cells assessed as cell growth inhibition at 120 uM measured after 48 hrs by CCK8 assay relative to control. The format is cell-based. Conditions: chlorocebus sabaeus.
In data set [18] the target is T1, Glutamate NMDA receptor (Mus musculus). Nature of the data set: Positive allosteric modulation of C57BL/6 mouse NMDA receptor assessed as potentiation of NMDA-induced current by measuring peak current amplitude at 30 uM measured after 15 to 30 mins by patch-clamp method (reference value: 54.6 +/- 4.6 pA). The format is tissue-based. As to conditions: Brain, filed as positive allosteric modulator, time 15-30 min.

Data set [19] has as its system Mus musculus. Put plainly: Antidepressant activity in ICR mouse assessed as decrease in immobility time at 3 to 10 mg/kg, ip measured after 26 mins by forced swim test. The format is functional, organism-based. As to conditions: dose 3-10 mg/kg.
Data set [20] addresses T3, Glutamate NMDA receptor; GRIN1/GRIN2A (Homo sapiens) (UniProt Q05586+Q12879). Put plainly: Effect on GluN1/GluN2A (unknown origin) expressed in HEK293 cells assessed as enhancement of NMDA-induced current at 30 uM by whole-cell patch clamp method. The format is cell-based.
Data set [21] has as its target Ionotropic glutamate receptor NMDA 1/2D (Homo sapiens) (UniProt Q05586+O15399). Put plainly: Negative allosteric modulation of GluN1/GluN2D (unknown origin) expressed in HEK293 cells assessed as inhibition of current induced by […] and glycine at 30 uM by whole-cell patch clamp method. The format is cell-based. Conditions: filed as negative allosteric modulator.

Data set [22] has as its target Glutamate NMDA receptor. Nature of the data set: Positive allosteric modulation of ICR mouse primary cortical neuron NMDA receptor assessed as potentiation of NMDA-induced current in presence of 30 uM exogenous glycine by whole-cell patch clamp method (reference value: 23.9 +/- 1.3 uM). The format is tissue-based, Brain.
The target of data set [23] is T3, Glutamate NMDA receptor; GRIN1/GRIN2A (Homo sapiens). Put plainly: Positive allosteric modulation of GluN1/GluN2A (unknown origin) expressed in HEK293 cells assessed as enhancement of current induced by […] and glycine at 30 uM by whole-cell patch clamp method. As to conditions: filed as positive allosteric modulator. The format is cell-based.
Data set [24] deals with T1, Glutamate NMDA receptor (Mus musculus). Put plainly: Positive allosteric modulation of ICR mouse primary cortical neuron NMDA receptor assessed as potentiation of NMDA-induced current at 10 uM in absence of exogenous glycine/D-serine by whole-cell patch clamp method. The format is tissue-based.
The test system of data set [25] is Mus musculus. Put plainly: Antidepressant activity in icv dosed CSDS-induced C57BL/6N mouse model assessed as reversal of reduction in CSDS-induced social interaction administered for 10 days by social interaction test. Conditions: time 10.0 day. The format is functional, organism-based.
Data set [26] addresses T1, Glutamate NMDA receptor (Mus musculus). Put plainly: Positive allosteric modulation of ICR mouse primary cortical neuron NMDA receptor assessed as potentiation of NMDA-induced current at 10 uM in presence of 30 uM exogenous glycine by whole-cell patch clamp method. As to conditions: Brain. The format is tissue-based.
For data set [27] the target is unchanged. Put plainly: Positive allosteric modulation of ICR mouse primary cortical neuron NMDA receptor assessed as potentiation of NMDA-induced maximum current by whole-cell patch clamp method. As to conditions: Brain. The format is tissue-based.
The target in data set [28] is Glutamate NMDA receptor; GRIN1/GRIN2B (Homo sapiens) (UniProt Q05586+Q13224). Put plainly: Positive allosteric modulation of GluN1/GluN2B (unknown origin) expressed in HEK293 cells assessed as enhancement of current induced by […] and glycine at 30 uM by whole-cell patch clamp method. The format is cell-based.
The subject of data set [29] is Neuron. Put plainly: Effect on AMPA receptor in ICR mouse hippocampal neuron assessed as increase in AMPA-induced current at 30 uM. The format is tissue-based.
Data set [30] concerns the target Glutamate NMDA receptor. Put plainly: Positive allosteric modulation of ICR mouse primary cortical neuron NMDA receptor assessed as potentiation of glycine-induced current in presence of 100 uM NMDA by whole-cell patch clamp method. The format is tissue-based, Brain.
In data set [31] the target is T3, Glutamate NMDA receptor; GRIN1/GRIN2A (Homo sapiens). Put plainly: Effect on GluN1/GluN2A (unknown origin) expressed in HEK293 cells assessed as enhancement of glycine-induced current at 30 uM by whole-cell patch clamp method. The format is cell-based.
Data set [32] deals with Neuron. Nature of the data set: Effect on GABA receptor in ICR mouse hippocampal neuron assessed as increase in GABA-induced current at 30 uM. The format is tissue-based.
Data set [33] concerns the target Ionotropic glutamate receptor NMDA 1/2C (Homo sapiens) (UniProt Q05586+Q14957). Nature of the data set: Positive allosteric modulation of GluN1/GluN2C (unknown origin) expressed in HEK293 cells assessed as enhancement of current induced by […] and glycine at 30 uM by whole-cell patch clamp method. The format is cell-based.

SMILES strings stand for the structures. Activity calls are given as the source filed them. The calls are words filed in the database; no cut-off is given here.

Turning to `CNCCC(Oc1ccc(C(F)(F)F)cc1)c1ccccc1` (centres undefined), the result in the data set with Mus musculus [1] was Active.

One may read the inhibition as the change of the read-out against control, counted positive when it falls. The term EC50 denotes the concentration at which the effect is half-maximal. As for `Cc1cc(C)n(Cc2ccc(C(=O)Nc3ccc4cc[nH]c4c3)s2)n1`, the inhibition at 48 h, 60 µM in data set [2] was -7.4%; in data set [9] it was 2.8%; in [14] it was -3.2%. Also, the Activity result in data set [3] and in [8] was “Non-Toxic” throughout. The values for the inhibition at 48 h, 120 µM in data set [4], in [10] and in [17] were 25.5%, 2.5% and -0.4%, respectively. Moreover, the results for the fold change (FC) in data set [5] and in data set [11] were 8.9 and 10.5, respectively. Moreover, in data set [6], the Kp was 0.316. Further, the concentration for a half-maximal effect (EC50) at Glutamate NMDA receptor [7] is 9 µM. Further, at hERG (KCNH2) [12], the inhibition at 2 s, 30 µM turned out to be 33.6%. Also, the result with Mus musculus [13] and with Mus musculus [16] was inactive. Also, the inhibition at 2 s, 100 µM against hERG (KCNH2) [15] was determined as 46.7%.

With `O=C(Nc1ccc(Cl)cc1C(=O)NCCCCO)c1ccco1`, the fold change (FC) in data set [5] turned out to be 3.5. In addition, the Kp in [6] is 0.0776. In data set [18], the Activity was determined as 1320 pA.

Regarding `Cc1cc(C)n(Cc2ccc(C(=O)Nc3ccc(-c4cccnc4)cc3)s2)n1`, the values for the inhibition at 48 h, 60 µM in data set [2], in data set [9] and in [14] were 6.5%, 27.5% and -3.8%, respectively. For the same compound, the Activity result in data set [3] and in data set [8] was “Non-Toxic” throughout. In addition, the inhibition at 48 h, 120 µM in data set [4] was 28.6%; in [10], 18%; in data set [17], -7.5%. Moreover, the values for the fold change (FC) in data set [5] and in data set [11] were 14.3 and 12.8, respectively. Besides, in data set [6], the Kp was 0.398. For the same compound, the concentration for a half-maximal effect (EC50) on Glutamate NMDA receptor [7] came out at 3.6 µM. Further, the outcome with Mus musculus [19] and in the data set with Mus musculus [16] was inactive. For the same compound, the inhibition at 2 s, 30 µM against hERG (KCNH2) [12] turned out to be 44.2%. In the data set with Mus musculus [13], the outcome was Active. At hERG (KCNH2) [15], the inhibition at 2 s, 100 µM came to 53.4%.

Consider `Cc1cc(C)n(Cc2ccc(C(=O)Nc3ccc(F)cc3C)s2)n1`, for which the inhibition at 48 h, 60 µM is 16.3% in data set [2], 11.5% in data set [9] and -1.5% in data set [14]. Further, the Activity result in data set [3] and in data set [8] was “Non-Toxic” each time. Moreover, the inhibition at 48 h, 120 µM in [4] worked out at 23.9%; in data set [10], 34.4%; in [17] it was 8.7%. In addition, the fold change (FC) in data set [5] is 10.1; in data set [11], 10.2. Also, the Kp in data set [6] is 0.794. At Glutamate NMDA receptor [7], the concentration giving a half-maximal response (EC50) stood at 7.8 µM. The outcome with Mus musculus [19] and in the data set on Mus musculus [16] was inactive. The inhibition at 2 s, 30 µM against hERG (KCNH2) [12] was determined as 33.4%. For the same compound, the outcome with Mus musculus [13] was Active. For the same compound, the inhibition at 2 s, 100 µM against hERG (KCNH2) [15] was determined as 47.6%.

Regarding `Cc1cc(C)n(Cc2ccc(C(=O)Nc3ccc(Br)cc3C)o2)n1`, the result (in data set [20]; in data set [24]; in data set [26]; in data set [27]; in data set [28]; in the data set with Neuron [29]) was inactive. Moreover, the outcome (in [31]; in the data set on Neuron [32]; in data set [33]) was inactive. Besides, the result (in [21]; in [23]; with Mus musculus [25]; in the data set with Mus musculus [1]) was Active. Moreover, the EC50 at Glutamate NMDA receptor [22] amounted to 13.6 µM; at Glutamate NMDA receptor [7], 8.8 µM; on Glutamate NMDA receptor [30], 11.8 µM. In addition, the fold change (FC) in data set [5] turned out to be 32; in data set [11], 3.8. In addition, the Kp in data set [6] was 0.661. Moreover, the Activity in data set [18] is 1180 pA.
